Test results reported in patent publication US6930118B2, “3-Oxadiazol-5-yl-1-aminoalkyl-1h-indole derivatives” (Amrad Operations Pty. Ltd., priority 2001, dated 2005).

Experiments:
CB1 receptor = target: T1, CB1 receptor (Mus musculus, UniProt P47746); experiment: Mouse electrically-stimulated isolated vas deferens bioassay (MVD); assay type: cell-based; conditions: decrease of electrically evoked twitch force, read-out: CB1 (MVD) % inh at 1.0 μM
T1 construct: Mouse vasa deferentia were dissected with capsular connective tissue intact and set up in 20 ml organ baths; from tissue; host or cells: mouse (Swiss white) isolated vas deferens
Procedure: Functional activity of the compounds was assayed using the mouse electrically-stimulated vas deferens bioassay, a measure of CB1 receptor function (24,25). […] CB2 functionality may be investigated using assays known to those skilled in the art; for example those described in U.S. Pat. No. 6,013,648.
Swiss white mice (35-40 g) were killed by exposure to 80% CO2 in O2 and exsanguination. Mouse vasa deferentia were dissected with capsular connective tissue intact and set up in 20 ml organ baths at 37° C. in Mg^2+-free physiological salt solution. The upper (epididymal) end was attached to an isometric force transducer (Grass FTO3C) and the lower (prostatic) end tied to a fixed support between two parallel platinum field electrodes (5 mm apart, 5 mm long). The tissue was initially stretched by 0.5 g force and allowed to equilibrate 10 min. The tissues were stimulated (Grass S88 stimulator) to contract using trains of electrical field stimulation of 3 pulses (4 Hz), 0.5 ms duration, 100 V (80% maximal voltage) every 20 s for 10 min. This electrical stimulation period was applied before and after both antagonist and agonist addition. Output from the transducer amplifier was recorded on a flat bed recorder (Gould BS 272, Cleveland, Ohio, U.S.A.). All drugs were dissolved in dimethyl sulfoxide (DMSO; Sigma, St Louis, Mo., U.S.A.) and allowed to equilibrate with the tissue for 30 min before the responses to field stimulation were assessed. Drug effects were measured as the percentage decrease of the pre-drug twitch force.

CB2 receptor = target: T2, CB2 receptor (Rattus norvegicus, UniProt Q9QZN9); experiment: Radioligand binding assay, rat spleen membranes
T2 sequence (Q9QZN9 1-343 limits assumed): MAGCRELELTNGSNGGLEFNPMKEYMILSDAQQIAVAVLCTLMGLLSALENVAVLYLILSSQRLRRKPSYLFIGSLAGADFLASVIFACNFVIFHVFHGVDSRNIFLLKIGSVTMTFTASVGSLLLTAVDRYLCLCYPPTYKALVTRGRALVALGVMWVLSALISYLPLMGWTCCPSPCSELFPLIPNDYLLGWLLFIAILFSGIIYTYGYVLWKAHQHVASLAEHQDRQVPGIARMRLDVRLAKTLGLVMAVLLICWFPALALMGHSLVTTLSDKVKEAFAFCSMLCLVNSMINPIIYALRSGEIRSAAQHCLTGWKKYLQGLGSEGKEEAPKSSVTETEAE
Procedure: The affinity of compounds at cannabinoid receptors is routinely assessed using ligand binding assays known to those skilled in the art. Radioligand binding assays were conducted using rat cerebellum or rat spleen. The cerebellum of the rat is known to express predominantly, if not exclusively, the CB1 receptor subtype (20,21). Thus, binding constants obtained from these studies are characterised by a single affinity value, as only one receptor type is labelled. […] In contrast, biphasic binding curves in the spleen characterised by two affinity constants represent the profile of compounds showing selectivity for one receptor subtype over another. In order to determine the order of selectivity, the high and low affinity values obtained for these compounds in the spleen binding assays were compared to the single affinity estimates obtained for the cerebellum (CB1) assays.
Sprague Dawley rats (200-300 g) were killed by gassing with 80% CO2 in O2 and decapitation and the spleen excised rapidly and placed in ice-cold Tris-HCl buffer (Tris 50 mM, MgCl2 3 mM, EGTA 0.2 mM, pH 7.4). The spleen was weighed and diced using a scalpel before homogenisation in 10 volumes of Tris-HCl buffer. The homogenate was then made up to 20 volumes and centrifuged (12,600 g, 5 min, 4° C.), the supernatant was retained and centrifuged (23,800 g, 20 min, 4° C.). The pellet was resuspended in 10 volumes of buffer and assayed for protein content using the method of Bradford (Bradford, 1976) with BSA as the standard. The homogenate was then recentrifuged and the final pellet resuspended in Tris-HCl buffer at a protein concentration of 5 mg/ml and stored in 500 μl aliquots at −80° C. until used for the binding assay.
Ligand binding assays were performed in polypropylene tubes in a total volume of 1 ml containing Tris-HCl buffer, a final concentration of 1 mg/ml BSA, and varying concentrations of drugs. Tubes contained 30 μg of membrane protein and incubation was started by the addition of 100 μl of either 0.5 nM [^3H]SR141716A or 0.2 nM [^3H]WIN 55,212-2. Experiments were carried out in triplicate at 30° C. for 90 min with non-specific binding being defined as radioligand binding in the presence of 1 μM unlabelled WIN 55,212-2. Incubations were terminated by rapid filtration with a M-24 Cell Harvester (Brandel; Gaithersburg, Md., U.S.A.) using ice-cold Tris-HCl buffer containing 0.5 mg/ml BSA. Filters (Wattman GF/B) were soaked for 2 h prior to filtering in a solution of Tris-HCl buffer containing 3 mg/ml BSA and 0.5% w/w polyethyleneimine (PEI). Filters were left to dry thoroughly before placement into scintillation vials with 5 ml of scintillation cocktail (Ultima Gold LSC-cocktail; Packard Bioscience, Meriden, Conn., U.S.A.) being added. Vials were left to stand overnight before the radioactivity was determined using a Model 1409 DSA Liquid Scintillation counter (EG&E Wallac, Gaithersburg, Md., U.S.A.).
The resulting radioligand binding curves were analyzed by nonlinear regression using the program PRISM 3.0 (GraphPad Software, San Diego, Calif.) in order to derive ligand affinity estimates for the cannabinoid receptor(s).

Sprague-Dawley rats = experiment: Neuropathic pain testing: L5/L6 spinal nerve ligation, tactile allodynia with von Frey hairs; assay type: in vivo; conditions: intraperitoneal injection, propylene glycol vehicle, rat
Description: Production of a unilateral hind limb neuropathy in male Sprague-Dawley rats was achieved using the technique of L5 and L6 spinal nerve ligation, according to the method of Kim and Chung (1992). Animals were given one week to recover from surgery prior to testing for the development of […] pain.
The testing procedure involved the determination of tactile allodynia using von Frey hairs, which were applied sequentially to the plantar surface of the rat paw starting with 2 g of force and proceeding upwards to a maximum of 15.1 g of force or downwards to a minimum of 0.4 g force. The 15.1 g force was used to define the maximum possible effect (MPE) for this test of neuropathic pain. Once paw withdrawal occurred, the 50% withdrawal threshold was determined using the “up-down” method as published by Dixon (1980). Both hind paws were tested. Response to therapy as measured by tactile allodynia threshold was calculated using the percentage maximum possible effect (% MPE) according to the following equation: % MPE=100×([Measured value]−[Pre-treatment value])/([MPE]−[Pre-treatment value]).
Drugs were dissolved in a propylene glycol vehicle and administered via intraperitoneal injection.

T1 sequence (P47746 whole entry): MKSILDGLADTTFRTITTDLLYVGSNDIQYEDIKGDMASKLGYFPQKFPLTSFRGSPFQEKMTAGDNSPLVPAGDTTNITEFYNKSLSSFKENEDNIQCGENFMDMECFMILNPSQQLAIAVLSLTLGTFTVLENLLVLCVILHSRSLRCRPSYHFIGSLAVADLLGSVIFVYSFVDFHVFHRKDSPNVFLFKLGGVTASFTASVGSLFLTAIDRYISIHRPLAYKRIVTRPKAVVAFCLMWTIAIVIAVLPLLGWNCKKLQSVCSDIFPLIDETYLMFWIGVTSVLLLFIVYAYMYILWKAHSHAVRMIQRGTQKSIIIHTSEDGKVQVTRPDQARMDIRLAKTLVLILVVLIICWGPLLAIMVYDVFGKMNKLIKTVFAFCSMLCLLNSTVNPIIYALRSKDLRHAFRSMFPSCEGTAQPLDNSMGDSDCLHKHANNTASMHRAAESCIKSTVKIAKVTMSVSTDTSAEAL

Compound: c1ccc(Cc2noc(-c3cn(CCN4CCCC4)c4ccccc34)n2)cc1 [Compound 1, 3-(3-Benzyl-[1,2,4]-oxadiazol-5-yl)-1-[2-(pyrrolidin-1-yl)ethyl]-1H-indole]
- inhibition at 1 µM (CB1 receptor): 80%
- IC50 (CB2 receptor): 1.6 µM
- antinociceptive effect in model of neuropathic pain (Sprague-Dawley rats): significant antinociceptive effect
